Patent US20250134835A1, “COMPOSITIONS AND METHODS FOR TREATING PATIENTS WITH AMYOTROPHIC LATERAL SCLEROSIS (ALS)” (CuraSen Therapeutics, Inc., priority 2022, published 2025)
Entries after “also recorded” stand apart in the source; their conditions may differ.

Key:
healthy volunteers [1] = experiment: Heart rate (triplicate ECG) after Compound 03-5 with or without nadolol; format: in vivo, human
Description: (§1) Healthy volunteers were enrolled into 2 cohorts in a study to undertake within-subject dose titration of Compound 03-5 and/or nadolol in order to explore doses/dose combinations that mitigate peripheral effects of Compound 03-5, e.g. on heart rate, while preserving possible central effects of Compound 03-5 on cerebral perfusion and pupillary light reflex.
(§2) Eight healthy subjects aged 18-50 years were enrolled into Cohort D1 and received escalating doses of Compound 03-5 (3-12 mg) administered once daily 2 hours follow pre-administration of nadolol (1-40 mg). On all dosing days, study drug(s) were administered orally after an overnight fast of at least 8 hours.
(§3) In Cohort D2, 8 healthy volunteers aged 55-75 years were admitted on Day −1 for a 5-day confinement period at the research facility. During this confinement, subjects received escalating doses of open label Compound 03-5 (1-10 mg) once-daily from Day 1 through Day 3 2 hours after pre-administration of open-label nadolol (3 mg) one each for the 3 dosing days according to the schematic in FIG. 17. Subjects remained in-residency until all study procedures are completed on Day 4.

healthy volunteers [2] = experiment: CANTAB cognition battery, Cohort D2; format: in vivo, human; settings: Compound 03-5 1, 3 and 10 mg on Days 1, 2, 3 in the presence of 3 mg nadolol
Description: as §3
Compound 03-5 dose administration. Compound 03-5 was administered as escalating doses on Day 1 (1 mg), Day 2 (3 mg) and Day 3 (10 mg). CANTAB was conducted twice in all subjects on the day prior to start of dosing (Day −1) to familiarize subjects with the platform, and prior to dosing and approximately 3 hours after Compound 03-5 administration on Days 1, 2, and 3.

healthy volunteers [3] = experiment: Blood potassium, glucose and other peripheral effects after Compound 03-5 with or without nadolol; format: in vivo, human
Description: as §1, §2, §3

[4] = tested on: healthy volunteers and patients; experiment: Cerebral blood flow after single dose of Compound 03-5; format: in vivo, human; settings: single dose of Compound 03-5 in the absence or presence of 3 mg nadolol
Description: Data are plotted as mean (±SEM) percent change in cerebral blood flow from baseline in brain regions of interest for movement (the precentral gyrus) and mood, anhedonia and cognition (hippocampus, thalamus, amygdala).

[5] = tested on: patients with neurodegenerative disorders; format: in vivo, human; settings: 80 μg clenbuterol and 1 mg nadolol once daily for 14 days vs placebo
healthy subjects [6] = experiment: Visual verbal learning test (VVLT); format: in vivo, human; settings: single dose; crossover study
Description: Subjects are presented 30 words on a screen, one at a time, for 1 second with a 1-second interval between words over a total of 1 minute. This is repeated in 3 trials. After each trial, subjects are asked to recall as many words as they can. After the third trial, there is a delay of 2.5 hours and subjects are then tested once for delayed recall. […] Since this was a crossover study, everyone who completed Part A was dosed with the 3 agents plus placebo.

healthy subjects [7] = experiment: Adaptive tracking test; format: in vivo, human; settings: single dose 160 μg clenbuterol
Description: Adaptive tracking measures visuomotor coordination and vigilance. In this test, the subject uses a joystick to move a small dot so that it stays within a continuously moving circle on a computer screen (Boland 1984). During the test, the speed of the circle is adjusted in response to the subject's ability to keep the dot in the circle, ensuring that the test is adapted to the individual subject. […] The improvement shown by subjects is in the same range as that seen with subjects treated with the acetylcholinesterase inhibitor donepezil, which is in clinical use for the treatment of mild to moderate AD (Groeneveld 2016).

patients [8] = experiment: Peripheral effects of clenbuterol with or without nadolol (heart rate, potassium, glucose)
[9] = tested on: patients with neurodegenerative disorders; experiment: Facial Expression Recognition Task (FERT), crossover study; format: in vivo, human; settings: clenbuterol co-administered with low-dose nadolol vs placebo
Description: The Facial Expression Recognition Task (FERT) assesses the recognition of facial emotions. […] Different intensity levels of each emotion are presented, which increases the ambiguity of the facial expression and the sensitivity of the task.

healthy subjects [10] = experiment: Cerebral perfusion by ASL MRI after single dose of clenbuterol (Example 3); settings: for cerebral blood flow measured by MRI-ASL: healthy volunteers, single dose (FIG. 2)
patients [11] = experiment: Cerebral blood flow by brain imaging after single dose (Example 1); format: in vivo, human
[12] = monotherapy with Compound 03-5 (0.3-6 mg)
[13] = 80 µg clenbuterol on its own, single dose

## CC(C)(C)NC[C@H](O)c1cccc(C#N)n1 [Compound 03-5, (S)-6-(2-(tert-butylamino)-1-hydroxyethyl)picolinonitrile]
Healthy volunteers [1]; Compound 03-5 with pre-administration of 1 mg nadolol
  mean maximum increase in heart rate: 7 beats per minute
Healthy volunteers [1]; [12]
  heart rate change from baseline: dose-dependent increases in heart rate
Healthy volunteers [2]
  cognition (CANTAB), change from within-day pre-dose assessment: improvements in performance in the CANTAB cognition battery
Healthy volunteers [3]; [12]
  blood potassium concentrations: dose-dependent decreases in blood potassium concentrations
[4]
  cerebral blood flow from baseline (precentral gyrus, hippocampus, thalamus, amygdala): robust, global increases in cerebral blood flow

## CC(C)(C)NCC(O)c1cc(Cl)c(N)c(Cl)c1 (centres unmarked) [clenbuterol]
[5]
  number of words correctly recalled, immediate verbal recall: statistically significant increase in the number of words correctly recalled
Healthy subjects [6]
  effect on VVLT (number of words recalled correctly): improvements in cognition; also recorded: positive effects
Healthy subjects [7]
  performance in adaptive tracking (percent time dot kept within moving circle): improved performance in the adaptive tracking task; also recorded: improves cognition; also recorded: performance in adaptive tracking improves
Patients [8]; [13]
  glucose in the blood, change from baseline: increases in glucose in the blood
  potassium in the blood, change from baseline: decreases in potassium in the blood
Patients [8]; 80 g clenbuterol on its own, single dose
  heart rate change from baseline: increases in heart rate
Patients [8]; over the 4 hours after dosing clenbuterol+nadolol (1 mg)
  increases in heart rate: 4.0-6.8 bpm
[9]
  accuracy of correctly identifying happy facial expressions (FERT): statistically significant increase in the accuracy
Healthy subjects [10]; 160 μg clenbuterol, hippocampus, thalamus, amygdala, cortex, precentral gyrus
  cerebral perfusion: robust global increase in cerebral perfusion
Healthy subjects [10]; clenbuterol 40 μg
  cerebral perfusion as measured by CBF: minimal increase
Healthy subjects [10]; clenbuterol doses below 30 μg
  cerebral perfusion as measured by CBF: do not produce significant cerebral perfusion increases
Healthy subjects [10]
  cerebral blood flow measured by MRI-ASL: increases in cerebral blood flow
Patients [11]; single dose clenbuterol 160 μg
  cerebral blood flow (CBF) relative to the baseline: global increases in cerebral blood flow; also recorded: robust global increase in cerebral blood flow; also recorded: robust, global increase in cerebral blood flow
Patients [11]; single dose clenbuterol 160 μg and nadolol 5 mg
  cerebral blood flow (CBF) relative to the baseline: global increases in cerebral blood flow; also recorded: robust global increase in cerebral blood flow
Patients [11]; single dose clenbuterol 30 to 160 μg and/or nadolol 5 mg, tracked 3 days
  cerebral blood flow from the baseline: robust global increase in cerebral blood flow
Patients [11]; single dose clenbuterol ranging from 20 to 160 μg, tracked 3 days
  cerebral blood flow (CBF) relative to the baseline: robust global increase in cerebral blood flow

## CC(C)(C)NCC(O)COc1cccc2c1CC(O)C(O)C2 (centres unmarked) [nadolol]
Healthy volunteers [1]; 3 mg nadolol pre-administered, Cohort D2, Compound 03-5 1-10 mg
  effect of nadolol on peripheral effects of Compound 03-5 (heart rate, glucose, potassium): inhibited; also recorded: similarly blocked
Healthy volunteers [1]; Cohort D1, nadolol 1 mg up to 40 mg, Compound 03-5 3-12 mg
  effect of nadolol on peripheral effects of Compound 03-5 (heart rate, glucose, potassium, tachycardia, tremor, palpitations): blocked
Healthy volunteers [1]; pre-administration of 1 mg nadolol, Compound 03-5 up to 6 mg orally
  effect of nadolol on heart rate increase and other peripheral effects of Compound 03-5: substantially attenuated
Healthy volunteers [3]; 3 mg nadolol, cohort D2
  effect of nadolol on Compound 03-5 induced decrease in blood potassium: inhibited
Healthy volunteers [3]; pre-administration of 1 mg nadolol
  effect of nadolol on effects of Compound 03-5 on blood glucose and potassium, tachycardia, tremor and palpitations: Concomitant attenuation

## CC(C)NCC(O)COc1cccc2[nH]ccc12 (centres unmarked) [pindolol]
Healthy subjects [6]
  effect on VVLT (number of words recalled correctly): detrimental effect
Healthy subjects [10]
  cerebral blood flow measured by MRI-ASL: lack of increase in cerebral blood flow

## CC(C)(C)NCC(O)c1ccc(O)c(CO)c1 (centres unmarked) [salbutamol]
Healthy subjects [6]
  effect on VVLT (number of words recalled correctly): improvements in cognition; also recorded: positive effects
